According to paper PMC10044120, “Potent and selective covalent inhibition of the papain-like protease from SARS-CoV-2” (Nature Communications, 2023):
Where “and” joins values, the source holds several entries; their conditions need not be identical. Identical values can stand only once. Like-named read-outs stand apart in the source and are kept apart here.

Columns and labels:
[1] = test system: SARS-CoV-2 Delta (B.1.617.2); test: CPE assay, neutral red, Vero E6 cells with 2 μM CP-100356, Delta; format: cell-based; settings: Severe acute respiratory syndrome coronavirus 2, Vero C1008
[2] = test system: SARS-CoV-2 isolate USA-WA1/2020; test: microbe, parasite or virus in culture
in vitro = settings: African green monkey
[3] = test system: SARS-CoV-2 isolate USA-WA1/2020; settings: for inhibition: read-out: cytopathic effect, % cell viability, duplicate wells
[4] = molecular target: full-length SARS-CoV-2 hemagglutinin (HA)-Nsp3 (Severe acute respiratory syndrome coronavirus 2, UniProt P0DTD1); test: biochemical
[5] = test system: SARS-CoV-2 Omicron (B.1.1.529); test: microbe, parasite or virus in culture; format: cell-based; settings: Severe acute respiratory syndrome coronavirus 2; Omicron (B1.1.529), Caco-2
[6] = Metabolic stability in human liver S9 fraction
Vero E6 cells = test: Cytotoxicity in uninfected Vero E6 cells, CellTiter-Glo
[7] = as above; settings: African green monkey
PLpro from SARS-CoV-2 = PLpro from SARS-CoV-2 (Severe acute respiratory syndrome coronavirus 2, UniProt P0DTD1); test: biochemical; format: biochemical; design: mean (kobs plot, Supplementary Figure 6 II): unit: min^-1
SARS-CoV-2 USA-WA1/2020 = test: microbe, parasite or virus in culture; format: cell-based; settings: for Virus Titer: USA-WA1/2020
[8] = Pharmacokinetics in male ICR mice (IV and PO)
UCHL1 = molecular target: T1, UCHL1 (Homo sapiens, UniProt P09936); test: biochemical; settings: UCHL1 10 nM, Ub-rhodamine110
T1 construct: purchased LifeSensors, Inc. (Malvern, PA)

USP30 = molecular target: T2, USP30 (Homo sapiens, UniProt Q70CQ3); test: biochemical; settings: USP30 10 nM, Ub-rhodamine110
T2 construct: purchased LifeSensors, Inc. (Malvern, PA)

[9] = test system: SARS-CoV-2 Omicron (B.1.1.529); test: CPE assay, neutral red, Vero E6 cells with 2 μM CP-100356, Omicron; format: cell-based; settings: Severe acute respiratory syndrome coronavirus 2, Vero C1008
[10] = test system: SARS-CoV-2 Delta (B.1.617.2); test: microbe, parasite or virus in culture; format: cell-based; settings: Severe acute respiratory syndrome coronavirus 2; Delta (B1.617.2), Caco-2
[11] = male, ICR (CD-1), mouse, plasma, iv, 3 mg/kg

T1 sequence (P09936 whole entry): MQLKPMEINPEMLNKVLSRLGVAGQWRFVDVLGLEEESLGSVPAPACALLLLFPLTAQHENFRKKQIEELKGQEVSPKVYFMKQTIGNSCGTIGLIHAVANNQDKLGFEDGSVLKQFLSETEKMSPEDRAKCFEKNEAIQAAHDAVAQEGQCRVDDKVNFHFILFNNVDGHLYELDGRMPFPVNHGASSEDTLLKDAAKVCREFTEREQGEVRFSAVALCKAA
T2 sequence (Q70CQ3 whole entry): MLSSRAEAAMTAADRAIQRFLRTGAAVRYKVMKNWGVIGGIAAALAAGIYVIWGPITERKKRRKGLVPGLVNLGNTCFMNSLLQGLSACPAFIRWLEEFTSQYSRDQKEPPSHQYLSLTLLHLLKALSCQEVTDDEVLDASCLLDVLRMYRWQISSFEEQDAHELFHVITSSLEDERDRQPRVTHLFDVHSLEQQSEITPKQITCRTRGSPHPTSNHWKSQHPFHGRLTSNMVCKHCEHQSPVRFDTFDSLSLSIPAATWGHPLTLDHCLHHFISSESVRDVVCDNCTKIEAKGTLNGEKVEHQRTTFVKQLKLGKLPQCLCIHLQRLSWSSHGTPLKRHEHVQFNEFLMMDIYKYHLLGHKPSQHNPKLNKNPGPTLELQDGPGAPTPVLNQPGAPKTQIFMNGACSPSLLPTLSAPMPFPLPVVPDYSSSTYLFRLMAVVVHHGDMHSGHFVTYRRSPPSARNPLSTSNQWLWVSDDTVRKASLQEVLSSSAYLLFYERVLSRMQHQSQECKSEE

Structure (SMILES): COC(=O)/C=C/C(=O)NNC(=O)CCc1ccccc1C(=O)N[C@H](C)c1cccc2ccccc12 [Compound 7, methyl(R,E)-4-(2-(3-(2-((1-(naphthalen-1 yl)ethyl)carbamoyl)phenyl)propanoyl)hydrazineyl)-4-oxobut-2-enoate]
- EC50 [1]: 290 nM
- viability at […] ([2]; Severe acute respiratory syndrome coronavirus 2, Vero C1008, read-out: % cell viability, cytopathic effect): 79.3% and 52.3%
- viability at 2.08 µM ([2]; Severe acute respiratory syndrome coronavirus 2, Vero C1008, read-out: % cell viability, cytopathic effect, 2.08 uM): 80.5%
- viability at 16.65 µM ([2]; Severe acute respiratory syndrome coronavirus 2, Vero C1008, read-out: % cell viability, cytopathic effect, 16.65 uM): 88.8%
- inhibition at […] ([2]; Severe acute respiratory syndrome coronavirus 2, Vero C1008, read-out: cytopathic effect, % cell viability): 79.3% and 52.3%
- inhibition at 2.08 µM ([2]; Severe acute respiratory syndrome coronavirus 2, Vero C1008, read-out: cytopathic effect, % cell viability, [inhibitor] 2.08 uM, duplicate wells): 80.5%
- inhibition at 16.65 µM ([2]; Severe acute respiratory syndrome coronavirus 2, Vero C1008, read-out: cytopathic effect, % cell viability, [inhibitor] 16.65 uM, duplicate wells): 88.8%
- CC50 (in vitro): > 10 µM
- cytotoxicity at 0.01 µM (in vitro): 6.3%
- cytotoxicity at 0.1 µM (in vitro): 1.1%
- cytotoxicity at 1 µM (in vitro): 3.3%
- cytotoxicity at 10 µM (in vitro): 27.4%
- cytotoxicity at 0.01 µM (in vitro; Percent Cytotoxicity (Neutral Red), Vero E6, SARS2-733 (Delta set), 0.01 µM): 11.8%
- cytotoxicity at 0.1 µM (in vitro; Percent Cytotoxicity (Neutral Red), Vero E6, SARS2-733 (Delta set), 0.1 µM): 7.1%
- cytotoxicity at 1 µM (in vitro; Percent Cytotoxicity (Neutral Red), Vero E6, SARS2-733 (Delta set), 1 µM): 4.8%
- cytotoxicity at 10 µM (in vitro; Percent Cytotoxicity (Neutral Red), Vero E6, SARS2-733 (Delta set), 10 µM): 9.3%
- cytotoxicity at 0.01 µM (in vitro; Percent Cytotoxicity (Neutral Red), Vero E6, SARS2-735, 0.01 µM): 0%
- cytotoxicity at 0.1 µM (in vitro; Percent Cytotoxicity (Neutral Red), Vero E6, SARS2-735, 0.1 µM): 0%
- cytotoxicity at 1 µM (in vitro; Percent Cytotoxicity (Neutral Red), Vero E6, SARS2-735, 1 µM): 3.8%
- cytotoxicity at 10 µM (in vitro; Percent Cytotoxicity (Neutral Red), Vero E6, SARS2-735, 10 µM): 38.5%
- % cell viability, cytopathic effect ([3]; 2.08 uM): 64.9953%
- % cell viability, cytopathic effect ([3]; 8.33 uM): 95.2833% and 73.4931%
- % cell viability, cytopathic effect ([3]; 16.65 uM): 97.0077%
- inhibition ([3]; [inhibitor] 2.08 uM, 2.08 µM): 65%
- inhibition ([3]; [inhibitor] 8.33 uM, 8.33 µM): 95.3% and 73.5%
- inhibition ([3]; [inhibitor] 16.65 uM, 16.65 µM): 97%
- CC50 (Caco-2 cells; Caco-2, Delta rows): > 10 µM
- CC50 (Caco-2 cells; Caco-2, Omicron rows): > 10 µM
- inhibition at 0.003 µM ([4]; 0.003 uM, read-out: Percent Nsp3 inhibition): -4%
- Percent Nsp3 inhibition ([4]; 1.852 uM): 84.0%
- inhibition at 1.852 µM ([4]; 1.852 uM, read-out: Percent Nsp3 inhibition): 83.9%
- Percent Nsp3 inhibition ([4]; 50.000 uM): 89.9%
- inhibition at 50 µM ([4]; 50.000 uM, read-out: Percent Nsp3 inhibition): 90.7%
- EC90 [5]: 2400 nM
- half-life [6]: 60 min
- microsomal CLint [6]: 38.9 µL/min/mg
- % cell viability, cytotoxicity (Vero E6 cells; 2.08 uM): 98.575%
- % cell viability, cytotoxicity (Vero E6 cells; 8.33 uM): 99.545%
- % cell viability, cytotoxicity (Vero E6 cells; 16.65 uM): 90.390%
- CC50 < 30 μM (Vero E6 cells; uninfected Vero E6 cells, Yes/No): No
- viability at 48 h, 2.08 µM ([7]; % cell viability, cytotoxicity, 2.08 uM): 100%
- viability at 48 h, 8.33 µM ([7]; % cell viability, cytotoxicity, 8.33 uM): 99.6%
- viability at 48 h, 16.65 µM ([7]; % cell viability, cytotoxicity, 16.65 uM): 95.7%
- CC50 at 48 h ([7]; CC50, uninfected Vero E6 cells): > 30 µM
- Kobs, mean (PLpro from SARS-CoV-2; 0.10 uM): 0.00424 min⁻¹
- Kobs, mean (PLpro from SARS-CoV-2; 0.20 uM): 0.03867 min⁻¹
- Kobs, mean (PLpro from SARS-CoV-2; 0.30 uM): 0.09135 min⁻¹
- remaining activity at 0.1 µM (PLpro from SARS-CoV-2; 5 min, read-out: PLpro activity after preincubation, inhibitor 0.1 uM, preincubation 5 min): 95.7%
- remaining activity at 0.2 µM (PLpro from SARS-CoV-2; 5 min, read-out: PLpro activity after preincubation, inhibitor 0.2 uM, preincubation 5 min): 105%
- remaining activity at 0.3 µM (PLpro from SARS-CoV-2; 10 min, read-out: PLpro activity after preincubation, inhibitor 0.3 uM, preincubation 10 min): 30.7%
- remaining activity at 0.3 µM (PLpro from SARS-CoV-2; 0.5 h, read-out: PLpro activity after preincubation, inhibitor 0.3 uM, preincubation 30 min): 17.7%
- remaining activity at 0.1 µM (PLpro from SARS-CoV-2; 1 h, read-out: PLpro activity after preincubation, inhibitor 0.1 uM, preincubation 60 min): 74.1%
- remaining activity at 0.2 µM (PLpro from SARS-CoV-2; 1 h, read-out: PLpro activity after preincubation, inhibitor 0.2 uM, preincubation 60 min): 2.6%
- remaining activity at 0.1 µM (PLpro from SARS-CoV-2; […], read-out: PLpro activity after preincubation, inhibitor 0.1 uM, preincubation 15 min): 104%
- remaining activity at 0.1 µM (PLpro from SARS-CoV-2; […], read-out: PLpro activity after preincubation, inhibitor 0.1 uM, preincubation 45 min): 75.3%
- remaining activity at 0.2 µM (PLpro from SARS-CoV-2; […], read-out: PLpro activity after preincubation, inhibitor 0.2 uM, preincubation 15 min): 59.4%
- remaining activity at 0.2 µM (PLpro from SARS-CoV-2; […], read-out: PLpro activity after preincubation, inhibitor 0.2 uM, preincubation 90 min): 0.514%
- remaining activity at 0.3 µM (PLpro from SARS-CoV-2; […], read-out: PLpro activity after preincubation, inhibitor 0.3 uM, preincubation 15 min): 26.7%
- Time dep. (time-dependent inhibition) (PLpro from SARS-CoV-2; fluorogenic peptide assay, varied preincubation time): Yes
- mean (kobs plot, Supplementary Figure 6 II) (PLpro from SARS-CoV-2; inhibitor 0.10 uM): 0.00424
- mean (kobs plot, Supplementary Figure 6 II) (PLpro from SARS-CoV-2; inhibitor 0.20 uM): 0.03867
- mean (kobs plot, Supplementary Figure 6 II) (PLpro from SARS-CoV-2; inhibitor 0.30 uM): 0.09135
- EC90 (SARS-CoV-2 USA-WA1/2020; Severe acute respiratory syndrome coronavirus 2, Caco-2): 260 nM
- Virus Titer (SARS-CoV-2 USA-WA1/2020; 0.01 µM): 4.0 CCID50/mL (Log10)
- Virus Titer (SARS-CoV-2 USA-WA1/2020; 0.1 µM): 1.7 CCID50/mL (Log10)
- Virus Titer (SARS-CoV-2 USA-WA1/2020; 1 µM): <0.7 CCID50/mL (Log10)
- Virus Titer (SARS-CoV-2 USA-WA1/2020; 10 µM): <0.7 CCID50/mL (Log10)
- oral bioavailability / exposure following PO dosing ([8]; 10 mg/kg p.o., male ICR mice): not orally bioavailable
- AUC(0-inf) [8, 11]: 5 ng·h/mL
- AUC(0-t) [8, 11]: 4 ng·h/mL
- C0 [8, 11]: 63 ng/mL
- Vd [8, 11]: 35.2 L/kg
- half-life [8, 11]: 3.6 min
- IC50 (UCHL1): > 30 µM
- IC50 (USP30): > 30 µM
- EC50 [9]: 680 nM
- EC90 [10]: > 10 µM
